The subject of test [1] is MCF-7, clone WS8, cells. The test can be described thus: MCF-7 cell proliferation assay of estrogenic activity. Format: cell-based, human.
Test [2] deals with T1, human estrogen receptor (Homo sapiens, UniProt P03372).
T1 sequence (P03372 1-595): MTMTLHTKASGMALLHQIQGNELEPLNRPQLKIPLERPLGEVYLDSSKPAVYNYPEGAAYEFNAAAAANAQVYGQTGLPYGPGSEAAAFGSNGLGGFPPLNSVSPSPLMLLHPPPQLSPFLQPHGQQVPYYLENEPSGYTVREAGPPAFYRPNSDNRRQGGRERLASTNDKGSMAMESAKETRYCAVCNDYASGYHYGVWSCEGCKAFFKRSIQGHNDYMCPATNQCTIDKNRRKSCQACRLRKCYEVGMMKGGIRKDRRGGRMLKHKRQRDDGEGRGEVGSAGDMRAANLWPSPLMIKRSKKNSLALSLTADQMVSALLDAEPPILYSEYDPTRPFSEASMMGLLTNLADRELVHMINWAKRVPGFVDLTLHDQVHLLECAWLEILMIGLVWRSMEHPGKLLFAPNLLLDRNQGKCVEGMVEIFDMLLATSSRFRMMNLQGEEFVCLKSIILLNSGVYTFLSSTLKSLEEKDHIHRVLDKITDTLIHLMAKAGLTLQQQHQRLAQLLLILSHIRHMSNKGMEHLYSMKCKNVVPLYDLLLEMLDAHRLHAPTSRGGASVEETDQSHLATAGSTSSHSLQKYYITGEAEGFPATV
The test is described as follows: suitable in vitro assay whose results are directly correlated to the MCF-7 cell proliferation assay. Format: cell-based. The note with it: in vitro assay correlated to MCF-7 assay through common reference compounds.

Molecules are shown by their SMILES. Read-outs that look alike come from different tables or passages of the source.

Consider `C[C@]12CC[C@@H]3c4ccc(O)cc4CC[C@H]3[C@@H]1CC[C@@H]2O` [17β-estradiol], for which the “Log RPE” value in test [1] (logarithmic (base 10) Relative Proliferative Effect relative to 17-beta estradiol, cell proliferation measured as total DNA, values 'expected or measured') came out at 2.00.
Consider `Oc1ccc(Cc2ccc(O)cc2)cc1` [Bisphenol F], for which the “Log RPE” value in test [1] was −2.
For the compound `Cc1cc(Cc2cc(C)c(O)c(C)c2)cc(C)c1O` [Structure 6, 4,4′-methylenebis(2,6-dimethylphenol)], in test [2], the estrogenic activity result was “do not exhibit appreciable estrogenic activity”.
As for `CCCC(c1cc(C(C)(C)C)c(O)cc1C)c1cc(C(C)(C)C)c(O)cc1C` [Structure 7, 4,4′-butylidenebis(2-t-butyl-5-methylphenol)], in test [2], the estrogenic activity entry is given as “do not exhibit appreciable estrogenic activity”.
For `CC(C)(C)c1cc(Cc2cc(C(C)(C)C)c(O)c(C(C)(C)C)c2)cc(C(C)(C)C)c1O` [Structure 8, 4,4′-methylenebis(2,6-di-t-butylphenol)], in test [2], the estrogenic activity result is on record as “do not exhibit appreciable estrogenic activity”.
The same measure, in the same setting: in the case of `Cc1cc(Cc2cc(C)cc(C(C)(C)C)c2O)c(O)c(C(C)(C)C)c1` [Structure 9] it was “do not exhibit appreciable estrogenic activity”; in that of `CC(C)(C)c1cc(O)c(C(C)(C)C)cc1O` [Structure 12, 2,5-di-t-butylhydroquinone], “do not exhibit appreciable estrogenic activity”.

The record behind these values is patent publication US9944749B2, “Polycarbonates” (Valspar Sourcing, Inc., priority 2012, dated 2018).
